One assay addresses T1, PKCθ (Homo sapiens, UniProt Q04759).
T1 construct: His6; purchased Millipore; host or cells: baculovirus in Sf21 cells
Description: In vitro enzyme assay (time-resolved fluorescence kinase assay), PKCθ, 100 μM ATP. The class given is biochemical. In a few lines: (§1)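 Read-out was time-resolved fluorescence, corrected for a minus-enzyme blank and converted to percent activity relative to enzyme without drug. They were stopped with EDTA.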

For the next assay, the target named is T2, PKCα (Homo sapiens, UniProt P17252).
T2 construct: His6; purchased Millipore; host or cells: baculovirus in Sf21 cells
Description: In vitro enzyme assay (time-resolved fluorescence kinase assay), PKCα, 100 μM ATP. In kind it is biochemical. Particulars: 100 μM ATP; read-out: PKCα enzyme IC50. An outline of the steps:
as §1

In assay [1] the test system is CD3/CD28 induced IL-2 in human T-Blasts. Put plainly: T-Blasts CD3/CD28 induced IL-2 assay. The conditions noted are these: read-out: CD3/CD28-stimulated IL2 in T-blasts EC50. In kind it is cell-based. In a few lines: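 PHA-generated human T-blasts, 2×10^5 per well, preincubated 30 min with 8-point 1/3 compound dilutions in duplicate, then stimulated with anti-CD3+anti-CD28 (5 μg/mL final) for 24 h at 37° C. Supernatant IL-2 measured; MTT toxicity run on remaining cells.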

Counter-ions that a name gives are not always drawn. A value given as a limit tells only on which side of the number the result lay.

T1 sequence (Q04759 whole entry): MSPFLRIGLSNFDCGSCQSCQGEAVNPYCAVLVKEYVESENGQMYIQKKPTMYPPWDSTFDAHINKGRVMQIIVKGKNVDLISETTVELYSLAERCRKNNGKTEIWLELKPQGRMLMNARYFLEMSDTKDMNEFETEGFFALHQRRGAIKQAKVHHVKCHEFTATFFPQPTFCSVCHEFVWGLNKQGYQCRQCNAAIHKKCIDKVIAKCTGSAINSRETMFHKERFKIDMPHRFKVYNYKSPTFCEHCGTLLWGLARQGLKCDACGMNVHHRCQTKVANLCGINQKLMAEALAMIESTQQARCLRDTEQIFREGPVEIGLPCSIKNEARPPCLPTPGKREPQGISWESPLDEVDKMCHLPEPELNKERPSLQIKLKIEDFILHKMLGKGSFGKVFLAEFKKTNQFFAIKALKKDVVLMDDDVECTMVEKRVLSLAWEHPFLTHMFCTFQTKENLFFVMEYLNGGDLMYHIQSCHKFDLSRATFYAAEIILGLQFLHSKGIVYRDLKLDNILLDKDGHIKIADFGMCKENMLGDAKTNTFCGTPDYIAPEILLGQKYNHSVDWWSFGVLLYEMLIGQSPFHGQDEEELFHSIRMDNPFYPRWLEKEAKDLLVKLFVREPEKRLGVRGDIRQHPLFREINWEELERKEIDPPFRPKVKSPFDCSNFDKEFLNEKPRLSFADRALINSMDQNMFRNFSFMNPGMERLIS

What is called IC50 is the point on the concentration scale where inhibition reaches its midpoint. Turning to `C[C@@H]1C(=O)NN=C2COc3cc(-c4ccccc4F)c(N(C)C4(C)CN(C[C@@H](C)O)C4)cc3N21` [Example 189], the values for the IC50 against PKCθ and at PKCα were below 250 nM and 250 to 1000 nM, respectively. In addition, the EC50 in assay [1] was below 250 nM.
Consider `C[C@@H]1C(=O)NN=C2COc3cc(-c4ccccc4F)c([C@@H]4CCN(CCO)C[C@@H]4C)cc3N21` [Example 206], for which the half-maximal inhibitory concentration (IC50) against PKCθ is below 250 nM; at PKCα, 1000 to 10000 nM. Further, the EC50 in assay [1] was below 250 nM.
As for `CC(C)c1cc2c(cc1[C@@H]1CCN(C)C[C@@H]1C)N1C(=NNC(=O)[C@H]1C)CO2` [Example 244], the concentration for half-maximal inhibition (IC50) is below 250 nM against PKCθ and 250 to 1000 nM at PKCα. Further, in assay [1], the EC50 was below 250 nM.
With `[2H]c1cn(C2(C)CNC2)c2cc3c(cc12)OCC1=NNC(=O)C(C)N13` (stereo not drawn) [Example 149, 8-Deuterated-1-methyl-10-(3-methyl-azetidin-3-yl)-3,5-dihydro-10H-6-oxa-3,4,10,11b-tetraaza-cyclopenta[b]phenanthren-2-one hydrochloride], the 50% inhibitory concentration (IC50) at PKCθ is below 250 nM; at PKCα, 1000 to 10000 nM. Further, the EC50 in assay [1] is below 250 nM.
In the case of `CC(C)c1cc2c(cc1OC1CNC1)N1C(=NNC(=O)C1C)CO2` (stereo not drawn) [Example 68, 6-(Azetidin-3-yloxy)-7-isopropyl-4-methyl-2,10-dihydro-9-oxa-1,2,4a-triaza-phenanthren-3-one trifluoroacetic acid], the values for the IC50 against PKCθ and on PKCα were 250 to 1000 nM and 1000 to 10000 nM, respectively. In addition, the EC50 in assay [1] lay within 250 to 1000 nM.
As for `C[C@@H]1C(=O)NN=C2COc3cc(-c4ccccc4F)c(N(C)[C@]4(C)CCN(C)C4)cc3N21` (single isomer, unassigned) [Example 198-4], the 50% inhibitory concentration (IC50) is below 250 nM on PKCθ and 250 to 1000 nM at PKCα. Also, the EC50 in assay [1] was below 250 nM.
As to `CCN1CC(C)(N(C)c2cc3c(cc2-c2ccccc2)OCC2=NNC(=O)C(C)N23)C1` (stereo not drawn) [Example 93], the IC50 on PKCθ is below 250 nM; on PKCα it was 1000 to 10000 nM. In assay [1], the EC50 was 1000 to 10000 nM.
Take `CC1C(=O)NN=C2COc3cc(-c4cccc(F)c4)c(NC4CNC4)cc3N21` (racemic) [Example 46]: the results for the IC50 at PKCθ and at PKCα were below 250 nM and 1000 to 10000 nM, respectively. The EC50 in assay [1] was below 250 nM.
As for `C[C@@H]1C(=O)NN=C2COc3cc(-c4ccccc4F)c(N4C[C@H](C)N(C)C[C@@H]4C)cc3N21` [Example 247], the half-maximal inhibitory concentration (IC50) at PKCθ and at PKCα was below 250 nM in each case. For the same compound, the EC50 in assay [1] was below 250 nM.
For `C[C@@H]1C(=O)NN=C2COc3cc4ccn([C@H]5CCNC5)c4cc3N21` [Example 151-1, (R)-1-Methyl-10-(S)-pyrrolidin-3-yl-3,5-dihydro-10H-6-oxa-3,4,10,11b-tetraaza-cyclopenta[b]phenanthren-2-one hydrochloric acid], the 50% inhibitory concentration (IC50) against PKCθ is below 250 nM; at PKCα it was 250 to 1000 nM. In addition, in assay [1], the EC50 was below 250 nM.
Consider `CC1C(=O)NN=C2COc3cc(-c4ccco4)c(N(C)C4(C)CN(C)C4)cc3N21` (stereo not drawn) [Example 171], for which the IC50 at PKCθ was below 250 nM; at PKCα, 1000 to 10000 nM. In addition, the EC50 in assay [1] is below 250 nM.
Take `CC1C(=O)NN=C2COc3cc(C4CC4)c(NC4CNC4)cc3N21` (racemic) [Example 49]: the half-inhibitory concentration (IC50) was below 250 nM against PKCθ and 1000 to 10000 nM at PKCα. The EC50 in assay [1] is below 250 nM.
For the compound `C[C@@H]1C(=O)NN=C2COc3cc(-c4ccccc4F)c(N(C)C4(C)CN(CCO)C4)cc3N21` [Example 191], the half-inhibitory concentration (IC50) on PKCθ is below 250 nM; at PKCα it was 250 to 1000 nM. Besides, the EC50 in assay [1] was below 250 nM.
In the case of `CC[C@H]1CN(C)CCN1c1cc2c(cc1-c1ccccc1F)OCC1=NNC(=O)[C@@H](C)N12` [Example 234], the figures for the IC50 on PKCθ and on PKCα were below 250 nM and 1000 to 10000 nM, respectively. For the same compound, the EC50 in assay [1] is 250 to 1000 nM.
In the same order, the values of `Cc1cc2c(cc1NC1CNC1)N1C(=NNC(=O)C1C)CO2` (stereo not drawn) [Example 122, 9-(Azetidin-3-ylamino)-1,8-dimethyl-3,5-dihydrobenzo[5,6][1,4]oxazino[3,4-c][1,2,4]triazin-2(1H)-one ditrifluoroacetic acid] are below 250 nM, 1000 to 10000 nM and 1000 to 10000 nM.
The matching figures for `C[C@@H]1CNCC[C@@H]1c1cc2c(cc1-c1ccccc1CO)OCC1=NNC(=O)[C@@H](C)N12` [Example 204]: below 250 nM, 1000 to 10000 nM and 250 to 1000 nM.
In the same order, the values of `CC1C(=O)NN=C2COc3cc(F)c(OC4(C)CNC4)cc3N21` (stereo not drawn) [Example 80, 7-Fluoro-4-methyl-6-(3-methyl-azetidin-3-yloxy)-2,10-dihydro-9-oxa-1,2,4a-triaza-phenanthren-3-one trifluoroacetic acid] are below 250 nM, 1000 to 10000 nM and below 250 nM.
With `C[C@@H]1C(=O)NN=C2COc3cc4c(cc3N21)N(C1(C)CNC1)CC4` [Example 159, 1-Methyl-10-(3-methyl-azetidin-3-yl)-3,5,9,10-tetrahydro-8H-6-oxa-3,4,10,11b-tetraaza-cyclopenta[b]phenanthren-2-one hydrochloride], the values for the half-inhibitory concentration (IC50) at PKCθ and on PKCα were below 250 nM and 1000 to 10000 nM, respectively. Also, the EC50 in assay [1] was below 250 nM.
Regarding `CC1C(=O)NN=C2COc3cc(-c4ccccc4)c(N(C)C4(C)CN(C5COC5)C4)cc3N21` (stereo not drawn) [Example 196], the figures for the 50% inhibitory concentration (IC50) against PKCθ and on PKCα were below 250 nM and 1000 to 10000 nM, respectively. Further, the EC50 in assay [1] fell in the range of 1000 to 10000 nM.
Turning to `CC1C(=O)NN=C2COc3cc(C(F)(F)F)c(C4CCNC(Cc5ccccc5)C4)cc3N21` (stereo not drawn) [Example 116, 9-(2-Benzylpiperidin-4-yl)-1-methyl-8-(trifluoromethyl)-3,5-dihydrobenzo[5,6][1,4]oxazino[3,4-c][1,2,4]triazin-2(1H)-one trifluoroacetic acid], the IC50 at PKCθ is below 250 nM; on PKCα it was 1000 to 10000 nM. For the same compound, the EC50 in assay [1] lay in the range of 250 to 1000 nM.
The matching figures for `CC1C(=O)NN=C2COc3cc(-c4ccccc4)c(C4CCNCC4)cc3N21` (stereo not drawn) [Example 119, 1-Methyl-8-phenyl-9-(piperidin-4-yl)-3,5-dihydrobenzo[5,6][1,4]oxazino[3,4-c][1,2,4]triazin-2(1H)-one trifluoroacetic acid]: below 250 nM, 1000 to 10000 nM and below 250 nM.
In the same order, the values of `C[C@@H]1C(=O)NN=C2COc3cc(C(F)(F)F)c([C@@H](C)C4(C)CNC4)cc3N21` (single isomer, unassigned) [Example 147-1, trifluoroacetic acid] are below 250 nM, 250 to 1000 nM and below 250 nM.
In the same order, the values of `C[C@@H]1C(=O)NN=C2COc3cc(C4=CCC(F)(F)CC4)c(N(C)C4(C)CN(C)C4)cc3N21` [Example 182] are below 250 nM, 1000 to 10000 nM and 250 to 1000 nM.
Regarding `CC1C(=O)NN=C2COc3cc(-c4ccc(C#N)cc4)c(N(C)C4(C)CN(C)C4)cc3N21` (stereo not drawn) [Example 174], the IC50 against PKCθ was below 250 nM; on PKCα, 1000 to 10000 nM. In assay [1], the EC50 is 250 to 1000 nM.
In the same order, the values of `CC1C(=O)NN=C2COc3cc(-c4ccc5ncsc5c4)c(NC4CNC4)cc3N21` (racemic) [Example 38] are below 250 nM, 1000 to 10000 nM and 250 to 1000 nM.
In the same order, the values of `Cc1ccc(-c2cc3c(cc2NC2CNC2)N2C(=NNC(=O)C2C)CO3)c(F)c1` (racemic) [Example 12] are below 250 nM, 1000 to 10000 nM and below 250 nM.

(Values after US9115151B2, “Substituted 2,10-dihydro-9-oxa-1,2,4A-triazaphenanthren-3-ones and uses thereof” (AbbVie Inc., priority 2012, dated 2015).)
